Series [1] has as its target T1, VHL (Homo sapiens, UniProt P40337).
T1 construct: expressed in transfected cells
Briefly: VHL HEK-293 BRET Assay (VHL NanoBRET Target Engagement Assay). It counts as cell-based. The conditions noted are these: for IC50: HEK 293 RT VHL-NanoLuc stable cells, 1 uM tracer, 2 hours, geometric mean where more than one measurement, read-out: VHL binding in cells (HEK293 nanoBRET); for Ratio cell permeability shift: ratio not defined. On the procedure: (§1) The VHL NanoBRET™ Target Engagement Assay analyzes the apparent affinity of test compounds for VHL in cells by competitive displacement of a VHL NanoBRET™ tracer reversibly bound to a NanoLuc® VHL fusion protein stably expressed in the cells.
(§2) 50 nL of control compound (10 mM; parental unlabeled VHL antagonist; see structure below) and 50 nL of DMSO (negative control) were dispensed into the appropriate control wells. DMSO was backfilled to a final volume of 50 nL as required. […] Max Signal control wells consisted of DMSO only treated wells. Minimum Signal control wells contained of 10 uM parental unlabeled VHL antagonist (control compound—see structure below). […] Background Signal control wells were prepared without tracer for background correction steps.
(§3) The raw BRET ratio values were calculated by dividing the acceptor emission value (610 nm) by the donor emission value (460 nm) for each sample. To correct for background, the BRET ratio in the absence of tracer (average of no-tracer control samples) was subtracted from the BRET ratio of each sample. Raw BRET units were converted to milliBRET units (mBU) by multiplying each raw BRET value by 1,000. The normalized NanoBRET™ signal was calculated relative to the Max Signal control wells (DMSO treated control wells) and the Minimum Signal control wells. Percentage inhibition was calculated relative to the Minimum Signal control and Maximum Signal control wells. IC50 values were derived by four parameter curve fitting using the Robust method.
(BRET reads energy transfer from a luciferase to a nearby fluorophore.)

In series [2] the target is T1, VHL. Briefly: VHL nanoBRET (+ Digitonin). The series is classed as cell-based. On the procedure: as §1, §2, §3

The text below walks through data of patent publication US20230391766A1, “1-(2-(4-CYCLOPROPYL-1H-1,2,3-TRIAZOL-1-YL)ACETYL)-4-HYDROXY-N-(BENZYL)PYRROLIDIN E-2-CARBOXAMIDE DERIVATIVES AS VHL INHIBITORS FOR THE TREATMENT OF ANEMIA AND CANCER” (Genentech, Inc., priority 2020, published 2023).

T1 sequence (P40337 whole entry): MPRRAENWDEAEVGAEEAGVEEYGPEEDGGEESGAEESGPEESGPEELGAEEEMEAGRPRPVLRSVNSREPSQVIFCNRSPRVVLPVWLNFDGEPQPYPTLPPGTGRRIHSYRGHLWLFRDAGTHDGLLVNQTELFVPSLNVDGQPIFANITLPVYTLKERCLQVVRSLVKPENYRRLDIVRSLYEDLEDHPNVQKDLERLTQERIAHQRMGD

`COC(=O)c1nnn([C@@H](C(=O)N2C[C@H](O)C[C@H]2C(=O)N[C@H](Cc2ccc(-c3ccccc3)cc2)C(N)=O)C(C)C)c1C` (single isomer, unassigned) [Isomer A from Example S33]: at VHL [1], the IC50 stood at 62500 nM and the “Ratio cell permeability shift” value is given as 1.43. Also, it took 43700 nM to reach a half-maximal effect on VHL [2] (EC50).

For the molecule `CC(C)[C@@H](C(=O)N1C[C@H](O)C[C@H]1C(=O)N[C@H](Cc1ccc(-c2ccccc2)cc1)C(N)=O)n1nnc2ccccc21` (single isomer, unassigned) [Isomer A from Example S36], on VHL [1], the IC50 was 300 nM and the “Ratio cell permeability shift” value came out at 0.77. Moreover, the EC50 (usually the midpoint of the concentration-response curve) at VHL [2] was found to be 390 nM.

As for `COC(=O)c1nnn([C@H](C(=O)N2C[C@H](O)C[C@H]2C(=O)N[C@H](Cc2ccc(-c3ccccc3)cc2)C(N)=O)C(C)C)c1C` (single isomer, unassigned) [Isomer B from Example S33], at VHL [1], the IC50 is 1620 nM and the “Ratio cell permeability shift” value is recorded as 1.64. This molecule yielded an EC50 at VHL [2] of 990 nM.

`CC(C)[C@H](C(=O)N1C[C@H](O)C[C@H]1C(=O)N[C@H](Cc1ccc(-c2ccccc2)cc1)C(N)=O)n1nnc2ccccc21` (single isomer, unassigned) [Isomer B from Example S36]: on VHL [1], the IC50 was 68500 nM and the “Ratio cell permeability shift” value amounted to 1.01. This molecule displayed an EC50 on VHL [2] of 68000 nM.

Regarding `C#CC1(c2cn([C@H](C(=O)N3C[C@H](O)C[C@H]3C(=O)NCc3ccc(-c4scnc4C)cc3)C(C)(C)C)nn2)CC1` [Compound 30, (2S,4R)-1-((S)-2-(4-(1-ethynylcyclopropyl)-1H-1,2,3-triazol-1-yl)-3,3-dimethylbutanoyl)-4-hydroxy-N-(4-(4-methylthiazol-5-yl)benzyl)pyrrolidine-2-carboxamide], on VHL [1], the IC50 was found to be 20 nM and the “Ratio cell permeability shift” value is on record as 1.15. Besides, on VHL [2], the half-maximal effective concentration (EC50) amounted to 20 nM.

For the molecule `Cc1ncsc1-c1ccc(CNC(=O)[C@@H]2C[C@@H](O)CN2C(=O)[C@@H](n2cc(C3(c4cn([C@H](C(=O)N5C[C@H](O)C[C@H]5C(=O)NCc5ccc(-c6scnc6C)cc5)C(C)(C)C)nn4)CC3)nn2)C(C)(C)C)cc1` [Compound 31, (2S,2'S,4R,4′R)-1,1′-((2S,2'S)-2,2′-(cyclopropane-1,1-diylbis(JH-1,2,3-triazole-4,1-diyl))bis(3,3-dimethylbutanoyl))bis(4-hydroxy-N-(4-(4-methylthiazol-5-yl)benzyl)pyrrolidine-2-carboxamide)], at VHL [1], the IC50 worked out at 310 nM and the “Ratio cell permeability shift” value worked out at 19.75. On VHL [2], this molecule came in with an EC50 of 20 nM.

As for `Cc1ncsc1-c1ccc(CNC(=O)[C@@H]2C[C@@H](O)CN2C(=O)[C@H](C2CCCCC2)n2cc(C3CC3)nn2)cc1` [Example S25, (2S,4R)-1-((S)-2-cyclohexyl-2-(4-cyclopropyl-1H-1,2,3-triazol-1-yl)acetyl)-4-hydroxy-N-(4-(4-methylthiazol-5-yl)benzyl)pyrrolidine-2-carboxamide], the “Ratio cell permeability shift” value on VHL [1] is 0.67.

Consider `Cc1c(C(=O)O)nnn1[C@@H](C(=O)N1C[C@H](O)C[C@H]1C(=O)N[C@H](Cc1ccc(-c2ccccc2)cc1)C(N)=O)C(C)C` [Example S34, 1-((R)-1-((2S,4R)-2-(((R)-3-([1,1′-biphenyl]-4-yl)-1-amino-1-oxopropan-2-yl)carbamoyl)-4-hydroxypyrrolidin-1-yl)-3-methyl-1-oxobutan-2-yl)-5-methyl-1H-1,2,3-triazole-4-carboxylic acid], for which the concentration for a half-maximal effect (EC50) on VHL [2] is above 100000 nM.

Molecule `Cc1c(C(=O)O)nnn1[C@H](C(=O)N1C[C@H](O)C[C@H]1C(=O)N[C@H](Cc1ccc(-c2ccccc2)cc1)C(N)=O)C(C)C` [Example S35, 1-((S)-1-((2S,4R)-2-(((R)-3-([1,1′-biphenyl]-4-yl)-1-amino-1-oxopropan-2-yl)carbamoyl)-4-hydroxypyrrolidin-1-yl)-3-methyl-1-oxobutan-2-yl)-5-methyl-1H-1,2,3-triazole-4-carboxylic acid] displayed a half-maximal effective concentration (EC50) at VHL [2] of 13000 nM.
